US8969332B2, “Aryloxy dihalopropenyl ether compounds and uses thereof” (Sinochem Corporation, priority 2011, dated 2015)
Like-named read-outs stand apart in the source and are kept apart here.

What was measured:
diamond back moth [1] = experiment: Insecticidal activity against diamond back moth in greenhouse (airbrush spraying of cabbage leaf discs); assay type: in vivo; details: Plutella xylostella, foliar, 72 h, read-out: Mortality of diamond back moth (%)
Protocol: (§1) Compounds were dissolved in mixed solvent (acetone:methanol=1:1), and diluted to required concentration with water containing 0.1% of tweed 80.
(§2) The method of spraying by airbrush: The cabbage leaves were made into plates of 2 cm diameter by use of punch. A test solution (0.5 ml) was sprayed by airbrush at the pressure of 0.7 kg/cm^2 to both sides of every plate. 10 Second instar larvae were put into the petri-dishes after the leaf disc air-dried and 3 replicates were set for each treatment. Then the insects were maintained in observation room (25° C., 60˜70% R.H.), Scores were conducted and mortalities were calculated after 72 h.

armyworm = experiment: Insecticidal activity against armyworm in greenhouse (airbrush spraying of corn leaf discs); assay type: in vivo; details: 72 h; for control of the armyworm: 600 mg/L; for Mortality of armyworm (%) / mortality at 10 µg/mL / mortality at 100 µg/mL: parallel determination; for mortality at 10 µg/mL / mortality at 100 µg/mL: Mythimna separata, foliar
Protocol: as §1
as §2, with “corn” for “cabbage”, “Petri-dishes” for “petri-dishes”, “thr” for “for”, “R.H.).” for “R.H.),”

Heliothis virescens = details: 100 ppm; cited from earlier work
Prodenia litura = details: 500 ppm; cited from earlier work
[2] = test system: cabbage butterfly (Pierisrapae Linne); experiment: Field trial against cabbage butterfly; assay type: in vivo; details: 105 g a.i./hm^2, 10% EC
Protocol: (§3) Calculation Method: Decrease rate of insects (%)=(the number of insects before application−the number of insects after application) the number of insects before application×100 Control efficacy (%)=(decrease rate of insects in treated area decrease rate of insects in blank comparative area)/(100−decrease rate of insects in blank comparative area)×100
The trial was carried out in a farmer's vegetable field in Xiangcheng District Suzhou City. The variety of the cabbage is Xinxia 50. The dosage of the compound 1 are 75, 105, 150 g a.i./hm^2 and the comparative agent pyridalyl is 105 g a.i./hm^2. The agent was applied on 26 May 2011. The application tool is Singaporean Linong HD-400 type backpack spray. Evenly spraying to whole cabbage which is at vegetative growth phase was conducted, Cabbage butterfly is at a peak time of 1-3 instars of larvae. The plot area is 15 m^2, 4 replicates and randomized block arrangement were set. The amount of spray liquid is 750 L/hm^2. It was from sunny to cloudy with the highest temperature of 22.6° C., and the lowest of 17.8° C. on the day of the application of the spray. Chosen 10 plants from each plot and scored the larvae at different instars at fixing time. The base number was investigated before treatment. The number of living larvae was counted after 1 day, 4 days, 7 days and 12 days respectively after application and control efficacy was calculated.
Calculation method: the same as Example 13.

housefly = experiment: Insecticidal activity against housefly (diet incorporation test); assay type: in vivo; details: Musca domestica, 72 h, read-out: Mortality of housefly (%)
Protocol: Diet Incorporation Tests: the test compound was dissolved with 90% acetone to obtain the mother liquor after weigh accurately with an electronic balance. The required concentration solution was got by diluting to the mother liquor with a certain concentration milk powder solution according to the designed doses in the experiment. Then, the diluted concentration solution was evenly put into the petri dishes with diameter of 6 cm inside which filter paper was placed by using a transferring-liquid gun ([…], solution each petri dish). Finally the 3rd instars of larvae were put into petri dishes with 10 each petri dish, and 3 replicates were set for each treatment. Then the insects were maintained in observation room (25° C., 60˜70% R.H.). Scores were conducted and mortalities were calculated after 72 h.

beet armyworm [3] = experiment: Field trial against beet armyworm on cabbage; assay type: in vivo, Laphygma exigua; details: 105 g a.i./hm^2, 10% EC
Protocol: The trial was carried out in rain shelter area of experimental field of Wuhan vegetable research institute, the test crop is cabbage (variety: Jingfeng NO. 1). The dosage of the invention compound 1 (Example 11, 10% EC, same as below) are 75, 105, 150 g a.i./hm^2. and the comparative agent pyridalyl (10% EC, commercially available, same as below) is 105 g a.i./hm^2. The agent was applied on 9 Oct. 2011. The application tool is Linong 16HD-400 type backpack spray. Evenly spraying to whole cabbage which is in rosette stage was conducted. Beet armyworm is mainly larvae. The plot area is 25 m^2 and 4 replicates and randomized block arrangement were set. The amount of spray liquid is 750 L/hm^2. It was sunny and there was no wind, with the highest temperature of 28° C. and the lowest of 15° C. on the day of the application. Chosen 10 plants from each plot and scored the larvae at different instars at fixing time. The base number was investigated before treatment. The number of living larvae was counted after 1 day, 3 days, 7 days and 14 days respectively after application and control efficacy was calculated.
as §3

diamond back moth [4] = experiment: Field trial against diamond back moth on cabbage; assay type: in vivo, Plutella xylostella; details: 105 g a.i./hm^2, 10% EC
Protocol: as §3
The trial was carried out in the test filed of Shenyang Research Institute of Chemical industry Ltd. The trial crop is cabbage (Variety: Zhonggan NO 8.). The dosage of the compound 1 are 75, 105, 150 g a.i./hm^2 and comparative agent pyridalyl is 105 g a.i./hm^2. The agent was applied once on 13 Jun. 2011. The application tool is Shandongweishi WS-16P type backpack manual sprayer. Evenly spraying to whole cabbage which is in rosette stage was conducted. Diamond back moth is originated at the peak time. The plot area is 10 m^2, 3 replicates and randomized block arrangement were set. The amount of spray liquid is 750 L/hm^2. It was sunny with the highest temperature of 29° C., and the lowest of 17° C. on the day of the application of the spray. The methods of investigation and calculation are the same as Example 13.

beet armyworm [5] = experiment: Insecticidal activity against beet armyworm (24 well-plate artificial diet emulsion method); assay type: in vivo; details: Spodoptera exigua, 72 h, read-out: Mortality of beet armyworm (%)
Protocol: as §1
24 well-plate artificial diet emulsion method: artificial food was added to each well of the 24 well-plate, after the artificial food was cooled, the prepared solution were added into the 24 well-plate according to the experimental design by order of chemical concentrations from low to high, by gently shaking the even emulsion film can be formed on the surface of the diet. 24 neat and healthy larvae were put into the 24 well-plate (one larvae each well) after the film was air-dried and 3 replicates were set for each treatment. Then the insects were maintained in observation room (25° C., 60˜70% R.H.). Scores were conducted and mortalities were calculated after 72 h.

[6] = 6.25 mg/L, parallel determination
[7] = 25 mg/L, parallel determination
[8] = 50 mg/L, parallel determination

In the case of `FC(F)(F)c1cnc(Oc2ccc(OCCCOc3c(Cl)cc(OCC=C(Cl)Cl)cc3Cl)cc2)c(Cl)c1` [Compound 2], the mortality at 6.25 µg/mL (diamond back moth [1]; [6]) is reported as 75%, the mortality at 25 µg/mL (diamond back moth [1]; [7]) is reported as 100% and the mortality at 50 µg/mL (diamond back moth [1]; [8]) is reported as 100%.
In the case of `Fc1cc(Cl)cnc1Oc1ccc(OCCCOc2c(Cl)cc(OCC=C(Cl)Cl)cc2Cl)cc1` [Compound 3], the “control of the armyworm” value (armyworm) is reported as 100%.
With `ClC(Cl)=CCOc1cc(Cl)c(OCCCOc2ccc(Oc3nc(Cl)c(Cl)cc3Cl)cc2)c(Cl)c1` [Compound 11] the “control of the armyworm” value (armyworm) was 100%.
For `ClC(Cl)=CCOc1cc(Cl)c(OCCCOc2ccc(Oc3ccccc3)cc2)c(Cl)c1` [Compound 38], the “control of the armyworm” value (armyworm) was 100%.
With `CC(C)(C)n1ncc(Oc2ccc(OCCCOc3c(Cl)cc(OCC=C(Cl)Cl)cc3Cl)cc2)c(Cl)c1=O` [Compound 57] the “control of the armyworm” value (armyworm) was 100%.
With `Fc1cccc(Cl)c1COc1ccc(OCCCOc2c(Cl)cc(OCC=C(Cl)Cl)cc2Cl)cc1` [Compound 72] the “control of the armyworm” value (armyworm) was 100%.
With `ClC(Cl)=CCOc1cc(Cl)c(OCCCOc2ccc(OCc3cnc(Cl)s3)cc2)c(Cl)c1` [Compound 80] the “control of the armyworm” value (armyworm) was 100%.
For `FC(F)(F)c1ccc(Oc2ccc(OCCCOc3ccc(OCC=C(Cl)Cl)cc3Cl)cc2)nc1` [Compound 83], the “control of the armyworm” value (armyworm) was 100%.
With `FC(F)(F)c1cnc(Oc2ccc(OCCCOc3ccc(OCC=C(Cl)Cl)cc3Cl)cc2)c(Cl)c1` [Compound 84] the “control of the armyworm” value (armyworm) was 100%.
In the case of `FC(F)(F)c1ccc(Oc2ccc(OCCCOc3c(Cl)cc(OCC=C(Cl)Cl)c(Cl)c3Cl)cc2)nc1` [Compound 117], the “Mortality of armyworm (%)” value (armyworm; 10 mg/L) is reported as 100%, the “Mortality of armyworm (%)” value (armyworm; 100 mg/L) is reported as 100% and the “control of the armyworm” value (armyworm) is reported as 100%.
For `FC(F)(F)c1cnc(Oc2ccc(OCCCOc3c(Cl)cc(OCC=C(Cl)Cl)c(Cl)c3Cl)cc2)c(Cl)c1` [Compound 118], the “control of the armyworm” value (armyworm) was 100%.
In the case of `ClC(Cl)=CCOc1cc(Cl)c(OCCCOc2ccc(Oc3nc4ccc(Cl)cc4o3)cc2)c(Cl)c1` [Compound 219], the “control of the armyworm” value (armyworm) is reported as 100%, the mortality at 10 µg/mL (armyworm; 10 mg/L) is reported as 70% and the mortality at 100 µg/mL (armyworm; 100 mg/L) is reported as 100%.
For `FC(F)(F)c1cnc(Oc2ccc(OCCCOc3c(Cl)cc(OCC=C(Cl)Cl)cc3Cl)cc2Cl)c(Cl)c1` [Compound D-1, reference compound], the mortality at 10 µg/mL (armyworm; 10 mg/L) is listed as 30%, the mortality at 100 µg/mL (armyworm; 100 mg/L) is listed as 90% and the “control on Heliothis virescens” value (Heliothis virescens) is listed as “above 80%”. The mortality at 6.25 µg/mL (diamond back moth [1]; [6]) was 0%, the mortality at 25 µg/mL (diamond back moth [1]; [7]) was 30% and the mortality at 50 µg/mL (diamond back moth [1]; [8]) was 80%. The “control against Prodenia litura” value (Prodenia litura) was “above 80%”.
For `FC(F)(F)c1ccc(OCCCOc2c(Cl)cc(OCC=C(Cl)Cl)cc2Cl)nc1` [Compound D-2, pyridalyl, reference compound], the “Control efficiency (%)” value ([2]; 1 day after treatment) was 49.7%, the “Control efficiency (%)” value ([2]; 4 day after treatment) was 84.3% and the “Control efficiency (%)” value ([2]; 7 day after treatment) was 88.5%. For the same compound, the “Control efficiency (%)” value ([2]; 12 days after treatment) was 75.8%, the mortality at 6.25 µg/mL (diamond back moth [1]) was 50% and the mortality at 25 µg/mL (diamond back moth [1]) was 75%. For the same compound, the mortality at 50 µg/mL (diamond back moth [1]) was 90%, the mortality at 10 µg/mL (housefly) was 0% and the mortality at 20 µg/mL (housefly) was 25%. The “Control efficiency (%)” value (beet armyworm [3]; 1 day after treatment) was 70.76%, the “Control efficiency (%)” value (beet armyworm [3]; 3 days after treatment) was 83.34% and the “Control efficiency (%)” value (beet armyworm [3]; 7 days after treatment) was 78.33%. The “Control efficiency (%)” value (beet armyworm [3]; 14 days after treatment) was 61.21%, the “Control efficacy (%)” value (diamond back moth [4]; 1 day after treatment) was 95.1% and the “Control efficacy (%)” value (diamond back moth [4]; 3 days after treatment) was 97.0%. The “Control efficacy (%)” value (diamond back moth [4]; 7 days after treatment) was 94.9%, the mortality at 2.5 µg/mL (beet armyworm [5]) was 16.7% and the mortality at 10 µg/mL (beet armyworm [5]) was 100%.
